The assay concerns the target T1, human kappa opioid receptors (Homo sapiens, UniProt P41145).
T1 construct: expressed in transfected cells; host or cells: U2OS
As to the kind of experiment: [35S]GTPγS binding, membranes from U2OS cells. Type of assay: biochemical. Conditions: for Emax: read-out: GTPγS (% efficacy).

Consider 42 compounds from US20220324876A1, “4-SUBSTITUTED PYRANO[3,4,b]PYRAZINE KAPPA AGONISTS FOR TREATING DRUG DEPENDENCY” (The Rockefeller University, priority 2019, published 2022).

Each structure is given as a SMILES string. Where two headings read alike, the source gives them in different places.

T1 sequence (P41145 whole entry): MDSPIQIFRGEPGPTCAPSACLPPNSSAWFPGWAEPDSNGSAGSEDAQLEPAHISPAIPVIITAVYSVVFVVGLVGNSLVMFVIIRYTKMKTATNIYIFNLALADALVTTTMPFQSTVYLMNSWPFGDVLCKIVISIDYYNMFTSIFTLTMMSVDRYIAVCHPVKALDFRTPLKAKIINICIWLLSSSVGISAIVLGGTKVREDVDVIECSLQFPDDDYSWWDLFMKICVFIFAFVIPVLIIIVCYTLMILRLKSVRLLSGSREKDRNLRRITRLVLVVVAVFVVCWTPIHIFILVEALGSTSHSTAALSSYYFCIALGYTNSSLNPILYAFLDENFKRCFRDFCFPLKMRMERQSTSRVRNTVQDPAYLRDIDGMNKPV

As to `O=C(Cc1ccc(Cl)c(Cl)c1)N1CCN(Cc2ncccn2)[C@@H]2COC[C@H](N3CCCC3)[C@H]21` (racemic) [rac-5A69], the Emax stood at 114%. Further, the response (GTPγS EC50 (nM), Table D) was half-maximal at 94 nM (EC50).

As to `O=C(Cc1ccc(Cl)c(Cl)c1)N1CCN(CCCO)[C@@H]2COC[C@H](N3CCCC3)[C@H]21` (racemic) [rac-5A75], the Emax came out at 89%. The same compound showed an EC50 (GTPγS EC50 (nM), Table D) of 39 nM.

Regarding `Cn1cc(CN2CCN(C(=O)Cc3ccc(Cl)c(Cl)c3)[C@H]3[C@H]2COC[C@@H]3N2CCCC2)cn1` (racemic) [rac-5A79], the midpoint of the response, the EC50, lay at 107 nM and the Emax came out at 82%.

For the compound `O=C(Cc1ccc(Cl)c(Cl)c1)N1CCN(Cc2ccccn2)[C@@H]2COC[C@H](N3CCCC3)[C@H]21` (racemic) [rac-5A80], the Emax is 94%. The same compound came in with an EC50 (GTPγS EC50 (nM), Table D) of 64 nM.

Consider `O=C(Cc1ccc(Cl)c(Cl)c1)N1CCN(Cc2cccnc2)[C@@H]2COC[C@H](N3CCCC3)[C@H]21` (racemic) [rac-5A81], for which the Emax was 95%. Further, the 50% effective concentration (EC50) (GTPγS EC50 (nM), Table D) came out at 7.4 nM.

Consider `O=C(Cc1ccc(Cl)c(Cl)c1)N1CCN(CC2CCOCC2)[C@@H]2COC[C@H](N3CCCC3)[C@H]21` (racemic) [rac-5A84], for which the response was half-maximal at 136 nM (EC50) and the Emax was 84%.

On to `O=C(Cc1ccc(Cl)c(Cl)c1)N1CCN(CC2CCS(=O)(=O)CC2)[C@@H]2COC[C@H](N3CCCC3)[C@H]21` (racemic) [rac-5A85], for which the EC50 was 320 nM and the Emax came to 100%.

Consider `N#CCN1CCN(C(=O)Cc2ccc(Cl)c(Cl)c2)[C@H]2[C@H]1COC[C@@H]2N1CCCC1` (racemic) [rac-5A87], for which the Emax stood at 115%. Where the note is “GTPγS EC50 (nM), Table D”, this compound yielded an EC50 of 20 nM.

For `O=C(O)CN1CCN(C(=O)Cc2ccc(Cl)c(Cl)c2)[C@H]2[C@H]1COC[C@@H]2N1CCCC1` (racemic) [rac-5A88], the EC50 stood at 2490 nM and the Emax was determined as 83%.

For the compound `CS(=O)(=O)CCN1CCN(C(=O)Cc2ccc(Cl)c(Cl)c2)[C@H]2[C@H]1COC[C@@H]2N1CCCC1` (racemic) [rac-5A94], the Emax was 109%. Where the note is “GTPγS EC50 (nM), Table D”, this compound showed an EC50 of 27 nM.

In the case of `O=C(Cc1ccc(Cl)c(Cl)c1)N1CCN(C(=O)c2ccon2)[C@@H]2COC[C@H](N3CCCC3)[C@H]21` (racemic) [rac-5A97], the Emax turned out to be 88%. In addition, the midpoint of the response (GTPγS EC50 (nM), Table D), the EC50, lay at 0.8 nM.

In the case of `O=C(Cc1ccc(Cl)c(Cl)c1)N1CCN(Cc2ncon2)[C@@H]2COC[C@H](N3CCCC3)[C@H]21` (racemic) [rac-5A100], the Emax turned out to be 86%. Moreover, the EC50 (GTPγS EC50 (nM), Table D) came out at 1.9 nM.

`NC(=O)CN1CCN(C(=O)Cc2ccc(Cl)c(Cl)c2)[C@H]2[C@H]1COC[C@@H]2N1CCCC1` (racemic) [rac-5A102]: the Emax worked out at 96%. For the setting “GTPγS EC50 (nM), Table D”, this compound returned a half-maximal effective concentration (EC50) of 37 nM.

On to `Cn1nccc1CN1CCN(C(=O)Cc2ccc(Cl)c(Cl)c2)[C@H]2[C@H]1COC[C@@H]2N1CCCC1` (racemic) [rac-5A104], for which the Emax was found to be 74%. The compound further had a concentration for a half-maximal effect (EC50) (GTPγS EC50 (nM), Table D) of 9 nM.

For the compound `Cc1noc(CN2CCN(C(=O)Cc3ccc(Cl)c(Cl)c3)[C@H]3[C@H]2COC[C@@H]3N2CCCC2)n1` (racemic) [rac-5A105], the Emax came to 82%. Moreover, the EC50 (GTPγS EC50 (nM), Table D) came out at 19 nM.

Take `O=C(Cc1ccc(Cl)c(Cl)c1)N1CCN(Cc2cn[nH]c2)[C@@H]2COC[C@H](N3CCCC3)[C@H]21` (racemic) [rac-5A107]: the Emax was found to be 112%. Where the note is “GTPγS EC50 (nM), Table D”, the EC50 amounted to 3.9 nM.

Take `O=C(Cc1ccc(Cl)c(Cl)c1)N1CCN(Cc2ccn[nH]2)[C@@H]2COC[C@H](N3CCCC3)[C@H]21` (racemic) [rac-5A108]: the Emax stood at 98%. In addition, for the setting “GTPγS EC50 (nM), Table D”, the EC50 stood at 26 nM.

For the compound `O=C(Cc1ccc(Cl)c(Cl)c1)N1CCN(Cc2ncco2)[C@@H]2COC[C@H](N3CCCC3)[C@H]21` (racemic) [rac-5A111], the Emax came out at 146%. Where the note is “GTPγS EC50 (nM), Table D”, the EC50 amounted to 9.8 nM.

As to `CCNC(=O)CN1CCN(C(=O)Cc2ccc(Cl)c(Cl)c2)[C@H]2[C@H]1COC[C@@H]2N1CCCC1` (racemic) [rac-5A112], the Emax was 75%. The compound also had a 50% effective concentration (EC50) (GTPγS EC50 (nM), Table D) of 85 nM.

Take `O=C(CN1CCN(C(=O)Cc2ccc(Cl)c(Cl)c2)[C@H]2[C@H]1COC[C@@H]2N1CCCC1)N1CCCC1` (racemic) [rac-5A113]: the Emax stood at 92%. Besides, the concentration for a half-maximal effect (EC50) (GTPγS EC50 (nM), Table D) worked out at 70 nM.

For `Cc1nnc(CN2CCN(C(=O)Cc3ccc(Cl)c(Cl)c3)[C@H]3[C@H]2COC[C@@H]3N2CCCC2)o1` (racemic) [rac-5A118], the Emax was found to be 91%. The compound also came in with an EC50 (GTPγS EC50 (nM), Table D) of 40 nM.

For the compound `O=C(Cc1ccc(Cl)c(Cl)c1)N1CCN(C(=O)c2ccno2)[C@@H]2COC[C@H](N3CCCC3)[C@H]21` (racemic) [rac-5A121], the Emax came out at 86%. For the same compound, it took 17 nM to reach a half-maximal effect (GTPγS EC50 (nM), Table D) (EC50).

Consider `O=C(Cc1ccc(Cl)c(Cl)c1)N1CCN(C(=O)c2cc[nH]n2)[C@@H]2COC[C@H](N3CCCC3)[C@H]21` (racemic) [rac-5A122], for which the Emax amounted to 79%. Where the note is “GTPγS EC50 (nM), Table D”, this compound showed an EC50 of 31 nM.

For the compound `O=C(Cc1ccc(Cl)c(Cl)c1)N1CCN(C(=O)c2cn[nH]c2)[C@@H]2COC[C@H](N3CCCC3)[C@H]21` (racemic) [rac-5A123], the Emax is 62%. Under “GTPγS EC50 (nM), Table D”, this compound gave an EC50 of 39 nM.

Consider `CN(C)S(=O)(=O)N1CCN(C(=O)Cc2ccc(Cl)c(Cl)c2)[C@H]2[C@H]1COC[C@@H]2N1CCCC1` (single isomer, unassigned) [Example 5A56A], for which the Emax was 77%. The compound also registered a concentration for a half-maximal effect (EC50) (GTPγS EC50 (nM), Table D) of 11 nM.

Consider `CN(C)S(=O)(=O)N1CCN(C(=O)Cc2ccc(Cl)c(Cl)c2)[C@H]2[C@H](N3CCCC3)COC[C@@H]21` (single isomer, unassigned) [Example 5A56B], for which the Emax was determined as 122%. For the setting “GTPγS EC50 (nM), Table D”, this compound showed an EC50 of 123 nM.

With `O=C(Cc1ccc(Cl)c(Cl)c1)N1CCN(CCO)[C@@H]2COC[C@H](N3CCCC3)[C@H]21` (single isomer, unassigned) [Example 5A74A], the Emax amounted to 95%. The EC50 (GTPγS EC50 (nM), Table D) stood at 21 nM.

As to `O=C(Cc1ccc(Cl)c(Cl)c1)N1CCN(CCO)[C@H]2COC[C@@H](N3CCCC3)[C@@H]21` (single isomer, unassigned) [Example 5A74B], the Emax was determined as 95%. Under “GTPγS EC50 (nM), Table D”, this compound yielded a half-maximal effective concentration (EC50) of 12 nM.

For `O=C(Cc1ccc(Cl)c(Cl)c1)N1CCN(CC2COC2)[C@@H]2COC[C@H](N3CCCC3)[C@H]21` (single isomer, unassigned) [Example 5A83A], the Emax worked out at 141%. Besides, where the note is “GTPγS EC50 (nM), Table D”, the EC50 was 199 nM.

For `O=C(Cc1ccc(Cl)c(Cl)c1)N1CCN(CC2COC2)[C@H]2COC[C@@H](N3CCCC3)[C@@H]21` (single isomer, unassigned) [Example 5A83B], the Emax stood at 113%. Besides, the half-maximal effective concentration (EC50) (GTPγS EC50 (nM), Table D) came out at 24 nM.

As for `O=C(Cc1ccc(Cl)c(Cl)c1)N1CCN(C(=O)CO)[C@@H]2COC[C@H](N3CCCC3)[C@H]21` (single isomer, unassigned) [Example 5A95A], the Emax worked out at 87%. For the same compound, the midpoint of the response (GTPγS EC50 (nM), Table D), the EC50, lay at 21 nM.

Turning to `O=C(Cc1ccc(Cl)c(Cl)c1)N1CCN(C(=O)CO)[C@H]2COC[C@@H](N3CCCC3)[C@@H]21` (single isomer, unassigned) [Example 5A95B], the Emax worked out at 78%. Also, the EC50 (GTPγS EC50 (nM), Table D) turned out to be 202 nM.

For `O=C(Cc1ccc(Cl)c(Cl)c1)N1CCN(C(=O)C2(O)CCCC2)[C@@H]2COC[C@H](N3CCCC3)[C@H]21` (single isomer, unassigned) [Example 5A125A], the Emax was 95%. Where the note is “GTPγS EC50 (nM), Table D”, this compound registered a concentration for a half-maximal effect (EC50) of 58 nM.

For `O=C(Cc1ccc(Cl)c(Cl)c1)N1CCN(C(=O)C2(O)CCCC2)[C@H]2COC[C@@H](N3CCCC3)[C@@H]21` (single isomer, unassigned) [Example 5A125B], the Emax was found to be 81%. The compound further displayed a half-maximal effective concentration (EC50) (GTPγS EC50 (nM), Table D) of 35 nM.

In the case of `O=C(Cc1ccc(Cl)c(Cl)c1)N1CCN(C(=O)C2(O)CC2)[C@@H]2COC[C@H](N3CCCC3)[C@H]21` (single isomer, unassigned) [Example 5A126A], the Emax was determined as 98%. The same compound showed an EC50 (GTPγS EC50 (nM), Table D) of 16 nM.

In the case of `O=C(Cc1ccc(Cl)c(Cl)c1)N1CCN(C(=O)C2(O)CC2)[C@H]2COC[C@@H](N3CCCC3)[C@@H]21` (single isomer, unassigned) [Example 5A126B], the Emax amounted to 107%. This compound also yielded an EC50 (GTPγS EC50 (nM), Table D) of 17 nM.

Regarding `O=C(Cc1ccc(Cl)c(Cl)c1)N1CCN(Cc2ccc(F)cc2)[C@@H]2COC[C@H](N3CCCC3)[C@H]21` (single isomer, unassigned) [Example 5A136A], the Emax was determined as 105%. Besides, the concentration for a half-maximal effect (EC50) (GTPγS EC50 (nM), Table D) is 7 nM.

`O=C(Cc1ccc(Cl)c(Cl)c1)N1CCN(Cc2ccc(F)cc2)[C@H]2COC[C@@H](N3CCCC3)[C@@H]21` (single isomer, unassigned) [Example 5A136B]: the Emax came to 129%. Besides, the half-maximal effective concentration (EC50) (GTPγS EC50 (nM), Table D) is 74 nM.

Regarding `O=C(Cc1ccc(Cl)c(Cl)c1)N1CCN(CC2CCCO2)[C@H]2COC[C@@H](N3CCCC3)[C@@H]21` (single isomer, unassigned) [Example 5A138D], the Emax was 102%. Further, a half-maximal response (GTPγS EC50 (nM), Table D) (EC50) required 100 nM.

On to `O=C(Cc1ccc(Cl)c(Cl)c1)N1CCN(S(=O)(=O)CCO)[C@@H]2COC[C@H](N3CCCC3)[C@H]21` (single isomer, unassigned) [Example 5A140A], for which the Emax was 112%. Moreover, the response (GTPγS EC50 (nM), Table D) was half-maximal at 20 nM (EC50).

Take `O=C(Cc1ccc(Cl)c(Cl)c1)N1CCN(S(=O)(=O)CCO)[C@H]2COC[C@@H](N3CCCC3)[C@@H]21` (single isomer, unassigned) [Example 5A140B]: the Emax stood at 107%. Further, under “GTPγS EC50 (nM), Table D”, the EC50 came out at 22 nM.

For the compound `COCCN1CCN(C(=O)Cc2ccc(Cl)c(Cl)c2)[C@H]2[C@H]1COC[C@@H]2N1CCCC1` (single isomer, unassigned) [Example 5A141A], the Emax stood at 96%. The compound also showed a concentration giving a half-maximal response (EC50) (GTPγS EC50 (nM), Table D) of 37 nM.
